Experimental data taken from ChEMBL document CHEMBL5465560, “Selectivity Literature for EUbOPEN Chemogenomic Library” (2024).
Values belong to the compound of their own block, whether it stands above or below them.

Experiments:
[1] = molecular target: Serine/threonine-protein kinase 24 (Homo sapiens) (UniProt Q9Y6E0); assay: Selectivity interaction (ActivX KiNativ screen (kinase selectivity in THP-1 cell lysates)) EUB0000639a STK24; format: subcellular; conditions: lysate, at 0.04 µM
[2] = molecular target: T1, Mitogen-activated protein kinase kinase kinase 15 (Homo sapiens) (UniProt Q6ZN16); assay: Selectivity interaction (KinomeScan (DiscoverX)) EUB0001049a MAP3K15; conditions: at 1 µM
T1 sequence (whole entry): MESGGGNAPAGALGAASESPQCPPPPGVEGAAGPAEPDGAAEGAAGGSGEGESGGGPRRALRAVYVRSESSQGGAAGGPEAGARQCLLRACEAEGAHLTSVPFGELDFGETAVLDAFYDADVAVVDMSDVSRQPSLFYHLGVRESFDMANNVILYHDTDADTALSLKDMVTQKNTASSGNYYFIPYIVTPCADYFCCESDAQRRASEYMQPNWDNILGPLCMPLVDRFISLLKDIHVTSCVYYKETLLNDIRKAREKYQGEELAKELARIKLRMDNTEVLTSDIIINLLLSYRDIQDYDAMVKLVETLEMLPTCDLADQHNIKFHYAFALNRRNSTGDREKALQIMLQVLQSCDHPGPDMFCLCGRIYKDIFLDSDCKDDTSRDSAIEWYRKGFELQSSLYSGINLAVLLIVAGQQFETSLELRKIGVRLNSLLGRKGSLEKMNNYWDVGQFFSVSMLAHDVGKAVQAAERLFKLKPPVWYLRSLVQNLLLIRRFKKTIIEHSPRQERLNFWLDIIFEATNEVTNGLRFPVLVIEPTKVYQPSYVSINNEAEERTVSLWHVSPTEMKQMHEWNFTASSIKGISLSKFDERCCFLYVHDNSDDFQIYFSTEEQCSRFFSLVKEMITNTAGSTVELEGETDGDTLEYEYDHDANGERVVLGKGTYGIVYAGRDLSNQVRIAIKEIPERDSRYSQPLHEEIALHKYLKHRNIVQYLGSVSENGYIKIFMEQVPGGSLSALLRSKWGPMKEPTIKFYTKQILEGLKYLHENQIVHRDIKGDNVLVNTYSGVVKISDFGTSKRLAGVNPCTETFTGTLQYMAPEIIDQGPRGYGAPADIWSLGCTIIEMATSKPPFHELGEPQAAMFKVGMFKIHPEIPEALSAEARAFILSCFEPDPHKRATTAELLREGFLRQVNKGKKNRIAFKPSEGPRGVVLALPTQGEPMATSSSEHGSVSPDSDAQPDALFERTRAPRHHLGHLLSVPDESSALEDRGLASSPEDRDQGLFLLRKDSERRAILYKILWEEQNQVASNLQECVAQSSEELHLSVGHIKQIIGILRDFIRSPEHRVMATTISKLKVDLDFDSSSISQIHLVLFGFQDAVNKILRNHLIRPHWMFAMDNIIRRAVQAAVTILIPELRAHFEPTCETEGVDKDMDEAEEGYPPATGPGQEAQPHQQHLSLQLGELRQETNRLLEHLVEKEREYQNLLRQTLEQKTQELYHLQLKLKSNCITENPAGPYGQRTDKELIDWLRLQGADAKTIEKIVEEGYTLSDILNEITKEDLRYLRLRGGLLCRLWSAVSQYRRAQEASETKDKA

[3] = molecular target: Cyclin-dependent kinase 8 (Homo sapiens, UniProt P49336); assay: Selectivity interaction (KinomeScan (DiscoverX)) EUB0001049a CDK8; conditions: at 1 µM
Sequence of Cyclin-dependent kinase 8 (P49336 whole entry): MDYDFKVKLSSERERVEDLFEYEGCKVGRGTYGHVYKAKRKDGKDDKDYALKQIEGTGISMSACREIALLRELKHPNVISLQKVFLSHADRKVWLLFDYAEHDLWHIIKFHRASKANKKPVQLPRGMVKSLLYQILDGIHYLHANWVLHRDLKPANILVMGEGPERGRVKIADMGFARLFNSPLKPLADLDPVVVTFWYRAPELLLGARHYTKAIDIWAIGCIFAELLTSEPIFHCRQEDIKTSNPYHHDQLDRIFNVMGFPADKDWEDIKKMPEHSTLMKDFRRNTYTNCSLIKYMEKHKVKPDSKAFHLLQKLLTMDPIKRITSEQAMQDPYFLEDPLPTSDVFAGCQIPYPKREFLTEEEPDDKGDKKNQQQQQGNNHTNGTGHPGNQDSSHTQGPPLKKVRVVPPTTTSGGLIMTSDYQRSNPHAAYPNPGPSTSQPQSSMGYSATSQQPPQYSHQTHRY

D(3) dopamine receptor = D(3) dopamine receptor (Homo sapiens, UniProt P35462); assay: Selectivity interaction (GPCR panel (PDSP screen)) EUB0001079a DRD3; conditions: at 10 µM
Sequence of D(3) dopamine receptor (P35462 whole entry): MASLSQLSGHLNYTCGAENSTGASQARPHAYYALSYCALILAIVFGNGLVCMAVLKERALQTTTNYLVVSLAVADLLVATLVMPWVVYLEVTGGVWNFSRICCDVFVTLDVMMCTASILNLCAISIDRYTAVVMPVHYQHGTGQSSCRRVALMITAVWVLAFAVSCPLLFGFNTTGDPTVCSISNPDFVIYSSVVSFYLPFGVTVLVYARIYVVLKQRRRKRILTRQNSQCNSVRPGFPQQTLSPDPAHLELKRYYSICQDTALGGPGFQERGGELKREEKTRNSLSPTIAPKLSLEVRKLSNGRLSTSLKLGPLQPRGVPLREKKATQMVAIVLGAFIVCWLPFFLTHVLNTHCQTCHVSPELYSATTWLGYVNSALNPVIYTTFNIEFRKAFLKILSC

[4] = molecular target: T2, Histone-lysine N-methyltransferase SETD7 (Homo sapiens) (UniProt Q8WTS6); conditions: at 1 µM
T2 sequence (whole entry): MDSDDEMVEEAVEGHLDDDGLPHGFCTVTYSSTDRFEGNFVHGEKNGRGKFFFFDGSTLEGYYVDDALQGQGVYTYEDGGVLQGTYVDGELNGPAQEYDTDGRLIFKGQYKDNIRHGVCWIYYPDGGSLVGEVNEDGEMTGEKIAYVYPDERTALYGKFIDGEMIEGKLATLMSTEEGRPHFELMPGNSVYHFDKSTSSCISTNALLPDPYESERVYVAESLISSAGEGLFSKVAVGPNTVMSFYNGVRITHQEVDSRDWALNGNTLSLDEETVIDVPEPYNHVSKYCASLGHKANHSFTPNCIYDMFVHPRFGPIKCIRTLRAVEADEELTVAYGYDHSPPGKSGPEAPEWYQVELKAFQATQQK

[5] = molecular target: T3, Mitogen-activated protein kinase kinase kinase 2 (Homo sapiens) (UniProt Q9Y2U5); assay: Selectivity interaction (KinomeScan (DiscoverX)) EUB0000092b MAP3K2; conditions: at 10 µM
T3 sequence (whole entry): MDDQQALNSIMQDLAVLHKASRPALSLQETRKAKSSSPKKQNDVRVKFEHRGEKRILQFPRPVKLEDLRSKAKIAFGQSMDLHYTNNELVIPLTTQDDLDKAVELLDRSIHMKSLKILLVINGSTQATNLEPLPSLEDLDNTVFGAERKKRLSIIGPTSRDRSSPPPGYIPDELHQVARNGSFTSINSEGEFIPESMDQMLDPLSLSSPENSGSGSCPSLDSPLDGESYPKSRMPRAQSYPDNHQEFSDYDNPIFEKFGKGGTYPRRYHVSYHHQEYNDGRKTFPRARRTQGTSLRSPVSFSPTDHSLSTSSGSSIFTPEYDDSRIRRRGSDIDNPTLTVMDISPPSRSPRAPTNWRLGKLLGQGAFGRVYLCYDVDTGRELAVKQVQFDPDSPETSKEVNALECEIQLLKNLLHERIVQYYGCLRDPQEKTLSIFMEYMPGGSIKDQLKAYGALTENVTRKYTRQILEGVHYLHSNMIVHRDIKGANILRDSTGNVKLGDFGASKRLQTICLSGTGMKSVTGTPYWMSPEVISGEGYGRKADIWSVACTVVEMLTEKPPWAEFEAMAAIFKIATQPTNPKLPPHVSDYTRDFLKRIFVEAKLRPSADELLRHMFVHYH

[6] = molecular target: 5'-AMP-activated protein kinase catalytic subunit alpha-1 (Homo sapiens, UniProt Q13131); assay: Selectivity interaction (KinomeScan (DiscoverX)) EUB0000092b PRKAA1; conditions: at 10 µM
Sequence of 5'-AMP-activated protein kinase catalytic subunit alpha-1 (Q13131 whole entry, looked up): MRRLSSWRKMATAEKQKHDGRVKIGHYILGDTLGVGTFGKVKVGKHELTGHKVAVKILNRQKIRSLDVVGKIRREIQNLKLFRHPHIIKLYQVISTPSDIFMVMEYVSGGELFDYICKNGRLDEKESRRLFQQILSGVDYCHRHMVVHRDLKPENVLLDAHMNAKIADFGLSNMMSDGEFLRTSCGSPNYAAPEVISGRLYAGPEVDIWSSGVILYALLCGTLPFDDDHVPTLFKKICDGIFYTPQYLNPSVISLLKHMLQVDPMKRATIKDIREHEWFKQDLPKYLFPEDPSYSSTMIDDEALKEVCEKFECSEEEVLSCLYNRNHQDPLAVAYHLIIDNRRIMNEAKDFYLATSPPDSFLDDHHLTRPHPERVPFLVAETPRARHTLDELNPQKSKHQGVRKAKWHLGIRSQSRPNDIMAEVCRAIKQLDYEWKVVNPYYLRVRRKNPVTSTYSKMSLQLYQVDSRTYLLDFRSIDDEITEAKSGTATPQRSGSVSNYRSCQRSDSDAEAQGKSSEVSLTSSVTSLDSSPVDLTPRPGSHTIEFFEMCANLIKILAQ

Sequence of Serine/threonine-protein kinase 24 (Homo sapiens) (Q9Y6E0 whole entry, looked up): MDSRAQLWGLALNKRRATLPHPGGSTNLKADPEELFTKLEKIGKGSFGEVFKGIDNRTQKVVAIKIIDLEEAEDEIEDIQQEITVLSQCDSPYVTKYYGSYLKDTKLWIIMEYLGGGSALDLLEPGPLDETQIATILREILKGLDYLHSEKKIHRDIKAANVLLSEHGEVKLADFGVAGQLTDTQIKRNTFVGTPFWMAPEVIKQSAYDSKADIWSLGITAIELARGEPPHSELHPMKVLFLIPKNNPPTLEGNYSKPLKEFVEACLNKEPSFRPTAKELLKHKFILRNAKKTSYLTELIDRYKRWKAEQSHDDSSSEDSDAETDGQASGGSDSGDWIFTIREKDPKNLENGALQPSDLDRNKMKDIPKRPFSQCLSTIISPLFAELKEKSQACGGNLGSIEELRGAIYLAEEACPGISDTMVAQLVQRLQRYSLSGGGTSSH

% of inhibition [1]: 13.3%
Compound: CC[C@@H]1[C@H](F)C(=O)N[C@@H]1COc1nccc2cc(C(N)=O)c(OC)cc12 [ZIMLOVISERTIB]

Compound: COc1cc(Nc2nc(C)cc(-c3cnn4nc(OC)ccc34)n2)cc(C(F)(F)F)c1
% of control [2]: 100%
% of control [3]: 100%

Compound: Nc1cnc(N2CCc3cc(S(=O)(=O)Nc4c(F)cc(Cl)cc4F)cc(N4CCCC4=O)c32)nc1 [TP-020n]
% of inhibition (D(3) dopamine receptor): 7.88%

% activity [4]: > 90%
Compound: CNCCN1CCC(c2cc(CN(C)C(=O)c3cccc(Oc4ccccc4)c3)ccn2)CC1

Compound: CCC(=O)N1CCN(c2ccc(-n3c(=O)ccc4cnc5ccc(-c6cnc7ccccc7c6)cc5c43)cc2C(F)(F)F)CC1
% of control [5]: 62%
% of control [6]: 91%
